Measurements published in patent publication US8101760B2, “Glucocorticoid receptor modulator and methods of use” (Eli Lilly and Company, priority 2007, dated 2012).

Biological target: T1, human GR (glucocorticoid receptor) (Homo sapiens, UniProt P04150)
T1 construct: expressed in transfected cells; host or cells: HEK293 (lysate, '293-GR lysate')
T1 sequence (P04150 1-777): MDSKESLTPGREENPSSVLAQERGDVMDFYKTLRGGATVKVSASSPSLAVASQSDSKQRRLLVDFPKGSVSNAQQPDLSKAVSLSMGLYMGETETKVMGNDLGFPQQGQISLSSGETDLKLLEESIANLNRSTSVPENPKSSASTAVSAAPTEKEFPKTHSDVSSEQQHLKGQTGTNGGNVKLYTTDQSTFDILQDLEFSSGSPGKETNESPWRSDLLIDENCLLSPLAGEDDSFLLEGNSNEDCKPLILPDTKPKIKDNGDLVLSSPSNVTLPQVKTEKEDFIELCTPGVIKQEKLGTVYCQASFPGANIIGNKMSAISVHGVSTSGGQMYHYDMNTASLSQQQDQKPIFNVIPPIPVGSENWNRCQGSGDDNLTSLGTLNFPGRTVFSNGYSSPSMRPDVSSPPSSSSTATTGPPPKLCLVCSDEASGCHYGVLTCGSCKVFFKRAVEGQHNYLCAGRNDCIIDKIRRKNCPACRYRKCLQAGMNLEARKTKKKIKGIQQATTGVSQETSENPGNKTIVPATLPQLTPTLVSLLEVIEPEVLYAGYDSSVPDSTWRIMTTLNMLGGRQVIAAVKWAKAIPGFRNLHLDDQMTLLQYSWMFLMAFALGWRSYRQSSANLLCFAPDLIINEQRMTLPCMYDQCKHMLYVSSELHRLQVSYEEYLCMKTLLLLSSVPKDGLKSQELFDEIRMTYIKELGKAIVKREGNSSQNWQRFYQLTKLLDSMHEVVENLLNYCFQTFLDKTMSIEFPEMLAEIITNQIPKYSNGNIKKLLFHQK
Test: Nuclear hormone receptor binding assay, GR
Settings: HEK293 cell lysate expressing human GR, [3H]-dexamethasone; mean of 5 determinations
Procedure: Cell lysates from human embryonic kidney HEK293 cells overexpressing human GR (glucocorticoid receptor), AR (androgen receptor), MR (mineralocorticoid receptor), or PR (progesterone receptor) are used for receptor-ligand competition binding assays to determine Ki values.
Briefly, steroid receptor competition binding assays are run in a buffer containing 20 mM Hepes buffer (pH=7.6), 0.2 mM EDTA, 75 mM NaCl, 1.5 mM MgCl2, 20% glycerol, 20 mM sodium molybdate, 0.2 mM DTT (dithiothreitol), 20 μg/mL aprotinin and 20 μg/mL leupeptin. Typically, steroid receptor binding assays include radio-labeled ligands, such as 0.3 nM [^3H]-dexamethasone for GR binding, 0.36 nM [^3H]-methyltrienolone for AR binding, 0.25 nM [^3H]-aldosterone for MR binding, and 0.29 nM [^3H]-methyltrienolone for PR binding, and either 20 μg 293-GR lysate, 22 μg 293-AR lysate, 20 μg 293-MR lysate or 40 μg 293-PR lysate per well. Assays are typically run in 96-well format. Competing test compounds are added at various concentrations ranging from about 0.01 nM to 10 μM. Non-specific binding is determined in the presence of 500 nM dexamethasone for GR binding, 500 nM aldosterone for MR binding, or 500 nM methyltrienolone for AR and PR binding. […] After an incubation of 2 hours, plates are read in a Wallac Microbeta counter. […]

Ki: 0.35 nM
SMILES: CC/C(=C1\c2ccc(Cl)cc2OCc2ncccc21)c1cccc(NS(C)(=O)=O)c1 [Compound (I), (E)-N-{3-[1-(8-Chloro-11H-10-oxa-1-aza-dibenzo[a,d]cyclohepten-5-ylidene)-propyl]-phenyl}-methanesulfonamide]
